{"source": "patent EP0632041A1", "about": "“New morphine derivatives having improved analgesic and narcotic properties” (priority 1993, dated 1995)", "key": {"rats": {"test_system": "rats", "experiment": "reflex inhibition and antinociception after intravenous and intrathecal injection in rats", "format": "in vivo", "settings": "for antinociceptive efficacy: after intrathecal injection; for reflex inhibitory potency: intravenous and intrathecal injection"}, "µ receptors": {"molecular_target": "µ receptors (Homo sapiens, UniProt P35372)", "sequence (P35372 whole entry)": "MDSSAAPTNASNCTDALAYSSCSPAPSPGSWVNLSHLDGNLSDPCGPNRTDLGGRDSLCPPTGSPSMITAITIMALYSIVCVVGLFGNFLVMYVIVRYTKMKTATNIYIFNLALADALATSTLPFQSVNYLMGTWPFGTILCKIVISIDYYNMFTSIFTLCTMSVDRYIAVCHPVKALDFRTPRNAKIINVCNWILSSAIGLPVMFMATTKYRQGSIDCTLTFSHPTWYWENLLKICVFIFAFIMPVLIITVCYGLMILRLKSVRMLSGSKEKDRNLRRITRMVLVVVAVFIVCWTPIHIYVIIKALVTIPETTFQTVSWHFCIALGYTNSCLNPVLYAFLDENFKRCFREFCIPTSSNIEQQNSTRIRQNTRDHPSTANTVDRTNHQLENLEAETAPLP", "settings": "binding studies; cited from earlier work"}, "κ receptors": {"molecular_target": "κ receptors (Homo sapiens, UniProt P41145)", "sequence (P41145 whole entry, looked up)": "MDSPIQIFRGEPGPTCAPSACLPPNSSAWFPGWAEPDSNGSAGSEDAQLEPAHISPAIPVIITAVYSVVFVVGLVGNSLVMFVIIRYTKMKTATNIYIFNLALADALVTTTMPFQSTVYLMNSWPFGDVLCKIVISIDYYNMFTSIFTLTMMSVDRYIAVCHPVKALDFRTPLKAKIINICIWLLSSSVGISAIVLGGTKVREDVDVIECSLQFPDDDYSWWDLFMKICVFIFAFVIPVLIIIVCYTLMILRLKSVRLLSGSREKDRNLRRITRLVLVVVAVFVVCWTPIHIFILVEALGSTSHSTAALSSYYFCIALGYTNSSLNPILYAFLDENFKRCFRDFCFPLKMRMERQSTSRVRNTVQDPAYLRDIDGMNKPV", "settings": "binding studies; cited from earlier work"}, "[1]": {"settings": "cited from earlier work"}, "δ receptors": {"molecular_target": "δ receptors (Homo sapiens, UniProt P41143)", "sequence (P41143 whole entry, looked up)": "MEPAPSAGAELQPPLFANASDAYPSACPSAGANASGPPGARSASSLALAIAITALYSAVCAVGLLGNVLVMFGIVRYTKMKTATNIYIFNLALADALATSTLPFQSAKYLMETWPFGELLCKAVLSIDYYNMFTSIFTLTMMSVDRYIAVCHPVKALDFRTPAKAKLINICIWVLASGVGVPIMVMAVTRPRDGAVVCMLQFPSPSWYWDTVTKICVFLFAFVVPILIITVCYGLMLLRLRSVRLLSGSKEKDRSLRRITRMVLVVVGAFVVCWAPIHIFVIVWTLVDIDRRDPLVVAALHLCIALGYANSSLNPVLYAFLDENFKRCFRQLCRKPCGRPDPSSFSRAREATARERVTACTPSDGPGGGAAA", "settings": "binding studies; cited from earlier work"}, "[2]": {"settings": "compared with prediction and with morphine; cited from earlier work"}, "mice": {"test_system": "mice", "settings": "cited from earlier work"}, "[3]": {"settings": "more potent than morphine; cited from earlier work"}, "[4]": {"settings": "more potent than morphine; cited from earlier work", "remark": "listed apart in the source"}, "[5]": {"test_system": "homogenate of bovine caudate nucleus", "settings": "cited from earlier work"}, "[6]": {"settings": "pH of 7.4; relative to morphine; cited from earlier work"}}, "note": "Like-named read-outs stand apart in the source and are kept apart here."}
{"smiles": "COc1ccc2c3c1O[C@H]1[C@@H](NC(=O)c4cccnc4)CC[C@H]4[C@@H](C2)N(C)CC[C@@]341", "note": "[7,8-dihydro-6α-nicotinoylaminocodeine]", "values": [{"measurement": "antinociceptive efficacy", "setting": "rats", "value": "long-lasting antinociceptive efficacy"}, {"measurement": "reflex inhibitory potency", "setting": "rats", "value": "strong reflex inhibitory potency"}]}
{"smiles": "CN1CC[C@]23c4c5ccc(O)c4O[C@H]2[C@@H](NC(=O)c2cccnc2)CC[C@H]3[C@H]1C5", "note": "[7,8-dihydro-6α-nicotinoylaminomorphine]", "values": [{"measurement": "antinociceptive efficacy", "setting": "rats", "value": "long-lasting antinociceptive efficacy"}, {"measurement": "reflex inhibitory potency", "setting": "rats", "value": "strong reflex inhibitory potency"}]}
{"smiles": "CN1CC[C@]23c4c5ccc(O[C@@H]6O[C@H](C(=O)O)[C@@H](O)[C@H](O)[C@H]6O)c4O[C@H]2[C@@H](O)C=C[C@H]3[C@H]1C5", "note": "[Example M-3-G]", "values": [{"measurement": "affinity, µ receptors", "setting": "µ receptors", "value": "poor affinity"}, {"measurement": "affinity, κ receptors", "setting": "κ receptors", "value": "poor affinity"}, {"measurement": "effect of microinjection", "setting": "[1]; microinjection directly into the periaquaductal grey", "value": "without effect"}, {"measurement": "affinity, δ receptors", "setting": "δ receptors", "value": "poor affinity"}, {"measurement": "lipophilicity", "setting": "[2]", "value": "far more lipophilic than predicted"}]}
{"smiles": "CN1CC[C@]23c4c5ccc(O)c4O[C@H]2[C@@H](O)C=C[C@H]3[C@H]1C5", "note": "[morphine]", "values": [{"measurement": "analgesic potency at both levels of the neuraxis", "setting": "mice; mouse, in vivo", "value": "equipotent"}]}
{"smiles": "CN1CC[C@]23c4c5ccc(O)c4O[C@H]2[C@@H](O[C@@H]2O[C@H](C(=O)O)[C@@H](O)[C@H](O)[C@H]2O)C=C[C@H]3[C@H]1C5", "note": "[Example M-6-G, morphine-6-glucuronide]", "values": [{"measurement": "analgesic potency relative to morphine", "setting": "mice; given intrathecally", "value": 90, "unit": "fold"}, {"measurement": "analgesic potency relative to morphine", "setting": "mice; given intravenously", "value": 650, "unit": "fold"}, {"measurement": "analgesic effectiveness at the level of the spinal cord versus supraspinally", "setting": "mice; spinal cord compared with supraspinal", "value": "approximately 5 fold"}, {"measurement": "analgesia, effect relative to morphine", "setting": "mice; subcutaneous administration, mice", "value": "approximately twice"}, {"measurement": "antinociceptive potency relative to morphine, writhing", "setting": "[3]", "value": 45, "unit": "fold"}, {"measurement": "antinociceptive potency relative to morphine, tail-flick", "setting": "[4]", "value": 61, "unit": "fold"}, {"measurement": "seizure activity", "setting": "[1]; high doses", "value": "profound seizure activity"}, {"measurement": "potency relative to morphine following microinjection", "setting": "[1]; microinjection into the periaquaductal grey", "value": "up to 20 fold"}, {"measurement": "ability to displace ³H-naloxone", "setting": "[5]", "value": "comparable to that of morphine"}, {"measurement": "affinity, δ receptors", "setting": "δ receptors", "value": "not"}, {"measurement": "lipophilicity", "setting": "[2]", "value": "far more lipophilic than predicted"}]}
{"smiles": "CN1CC[C@]23c4c5ccc(OC(=O)c6cccnc6)c4O[C@H]2[C@@H](OC(=O)c2cccnc2)C=C[C@H]3[C@H]1C5", "note": "[nicomorphine, 3,6-dinicotinoyl-morphine]", "values": [{"measurement": "lipid solubility higher than that of morphine", "setting": "[6]", "value": "about 10 fold"}]}
